% of control, % of activity and % of inhibition data for nine compounds are collected here from ChEMBL document CHEMBL5465560, “Selectivity Literature for EUbOPEN Chemogenomic Library” (2024).

For test [1], the target named is Phosphorylase b kinase gamma catalytic chain, skeletal muscle/heart isoform (Homo sapiens) (UniProt Q16816). The test is described as follows: Selectivity interaction (Ambit KINOMEscan and KiNATiv profiling in Jurkat cells) EUB0000090b PHKG1. The note with it: at 1 µM. The test is classed as cell-based.
Chain of Phosphorylase b kinase gamma catalytic chain, skeletal muscle/heart isoform (Homo sapiens) (Q16816 whole entry, looked up, canonical isoform): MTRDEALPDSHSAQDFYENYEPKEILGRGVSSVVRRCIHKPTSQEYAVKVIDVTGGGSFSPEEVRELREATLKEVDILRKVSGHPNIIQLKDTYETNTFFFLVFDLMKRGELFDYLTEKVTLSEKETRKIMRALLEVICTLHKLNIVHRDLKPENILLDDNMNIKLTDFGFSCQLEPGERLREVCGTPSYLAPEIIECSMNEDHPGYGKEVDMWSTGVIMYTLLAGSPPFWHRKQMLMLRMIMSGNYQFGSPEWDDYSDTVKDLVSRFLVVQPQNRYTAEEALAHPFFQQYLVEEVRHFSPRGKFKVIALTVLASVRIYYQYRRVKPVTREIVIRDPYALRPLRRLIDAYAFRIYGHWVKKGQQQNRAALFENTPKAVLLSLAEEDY
The target in test [2] is T1, Protein arginine N-methyltransferase 9 (Homo sapiens) (UniProt Q6P2P2).
T1 sequence (whole entry): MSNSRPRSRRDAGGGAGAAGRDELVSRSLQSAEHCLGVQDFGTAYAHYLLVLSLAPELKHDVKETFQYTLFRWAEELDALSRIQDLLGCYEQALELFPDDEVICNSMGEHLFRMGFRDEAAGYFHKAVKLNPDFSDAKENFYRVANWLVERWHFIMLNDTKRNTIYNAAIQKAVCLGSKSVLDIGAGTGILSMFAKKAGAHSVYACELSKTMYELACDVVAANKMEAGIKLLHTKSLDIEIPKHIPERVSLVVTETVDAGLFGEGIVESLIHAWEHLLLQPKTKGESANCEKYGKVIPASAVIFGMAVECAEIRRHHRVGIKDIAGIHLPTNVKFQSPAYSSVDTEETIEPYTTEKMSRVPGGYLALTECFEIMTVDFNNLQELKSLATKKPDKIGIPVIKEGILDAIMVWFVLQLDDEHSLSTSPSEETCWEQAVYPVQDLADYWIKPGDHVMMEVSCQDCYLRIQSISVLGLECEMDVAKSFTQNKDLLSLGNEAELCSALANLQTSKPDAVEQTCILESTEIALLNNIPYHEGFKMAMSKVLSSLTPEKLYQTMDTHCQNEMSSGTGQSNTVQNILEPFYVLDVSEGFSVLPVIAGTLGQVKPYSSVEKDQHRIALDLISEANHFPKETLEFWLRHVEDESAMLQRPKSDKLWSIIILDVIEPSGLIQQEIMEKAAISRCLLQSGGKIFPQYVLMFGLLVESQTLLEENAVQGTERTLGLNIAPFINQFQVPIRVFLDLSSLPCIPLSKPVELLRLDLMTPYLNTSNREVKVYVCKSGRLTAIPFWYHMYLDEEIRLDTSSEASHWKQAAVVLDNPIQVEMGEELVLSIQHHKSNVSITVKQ
In words: Selectivity interaction (Methyltransferase screen (radiometric assays, panel of 8 PRMTs, 21 protein lysine methyltransferases, 3 DNA methyltransferases, and one RNA methyltransferase)) EUB0000271b PRMT9.

Test [3] concerns the target Serine/threonine-protein kinase SIK3 (Homo sapiens) (UniProt Q9Y2K2). The test is described as follows: Selectivity interaction (KinomeScan (DiscoverX)) EUB0000666a SIK3. The note with it: at 10 µM.
The target in test [4] is TRAF2 and NCK-interacting protein kinase (Homo sapiens) (UniProt Q9UKE5). In words: Selectivity interaction (ActivX KiNativ screen (ex vivo kinase selectivity in human PBMCs)) EUB0001619a TNIK. The format is cell-based. The note with it: PBMC, at 1 µM.
Chain of TRAF2 and NCK-interacting protein kinase (Homo sapiens) (Q9UKE5 whole entry, looked up): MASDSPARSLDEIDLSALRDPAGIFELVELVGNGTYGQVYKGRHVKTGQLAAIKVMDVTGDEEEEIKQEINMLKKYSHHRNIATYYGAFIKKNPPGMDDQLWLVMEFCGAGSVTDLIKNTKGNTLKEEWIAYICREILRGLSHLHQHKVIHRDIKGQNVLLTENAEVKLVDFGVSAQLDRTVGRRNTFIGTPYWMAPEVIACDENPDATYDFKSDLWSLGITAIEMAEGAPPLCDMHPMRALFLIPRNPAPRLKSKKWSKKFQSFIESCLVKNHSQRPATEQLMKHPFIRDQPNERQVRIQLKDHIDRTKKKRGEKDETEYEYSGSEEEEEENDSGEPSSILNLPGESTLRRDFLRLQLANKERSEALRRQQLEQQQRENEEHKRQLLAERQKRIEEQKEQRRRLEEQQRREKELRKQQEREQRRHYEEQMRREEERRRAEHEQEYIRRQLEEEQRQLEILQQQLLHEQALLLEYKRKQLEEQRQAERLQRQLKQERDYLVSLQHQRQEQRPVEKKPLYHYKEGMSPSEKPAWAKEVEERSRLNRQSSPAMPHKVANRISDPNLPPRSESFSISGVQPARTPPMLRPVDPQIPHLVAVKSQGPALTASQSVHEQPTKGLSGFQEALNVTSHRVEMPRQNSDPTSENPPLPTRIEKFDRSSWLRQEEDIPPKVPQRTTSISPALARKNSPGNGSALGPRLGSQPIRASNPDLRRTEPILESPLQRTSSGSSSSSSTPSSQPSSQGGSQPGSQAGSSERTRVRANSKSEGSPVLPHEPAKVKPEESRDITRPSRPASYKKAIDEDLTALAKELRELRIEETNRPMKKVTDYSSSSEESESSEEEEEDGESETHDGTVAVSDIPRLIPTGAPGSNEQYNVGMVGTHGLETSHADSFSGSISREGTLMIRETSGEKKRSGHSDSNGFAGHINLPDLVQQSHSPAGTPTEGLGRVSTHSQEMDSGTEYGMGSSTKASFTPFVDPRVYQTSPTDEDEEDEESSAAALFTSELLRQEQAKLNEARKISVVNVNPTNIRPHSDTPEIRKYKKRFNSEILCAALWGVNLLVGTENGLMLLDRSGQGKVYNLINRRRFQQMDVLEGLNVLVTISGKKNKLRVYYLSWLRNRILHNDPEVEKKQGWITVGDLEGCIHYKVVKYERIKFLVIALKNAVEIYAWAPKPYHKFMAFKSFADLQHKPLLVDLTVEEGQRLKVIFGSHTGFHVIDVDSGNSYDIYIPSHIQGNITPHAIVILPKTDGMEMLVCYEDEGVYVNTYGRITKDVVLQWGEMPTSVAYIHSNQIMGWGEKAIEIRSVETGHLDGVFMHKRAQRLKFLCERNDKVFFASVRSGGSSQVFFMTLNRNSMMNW
Test [5] has as its target Tyrosine-protein kinase Lyn (Homo sapiens, UniProt P07948). In words: Selectivity interaction (ActivX KiNativ screen (kinase selectivity in THP-1 cell lysates)) EUB0000639a LYN. The test is classed as subcellular. The note with it: lysate, at 0.01 µM.
The target in a further test is Focal adhesion kinase 1 (Homo sapiens, UniProt Q05397). The note with it: at 10 µM.
Test [6] has as its target Vascular endothelial growth factor receptor 1 (Homo sapiens) (UniProt P17948). The test is described as follows: Selectivity interaction (KinomeScan (DiscoverX)) EUB0000695a FLT1. The conditions noted are these: at 100 nM.
For test [7], the system named is T2, Discoidin domain-containing receptor 2 (Homo sapiens), Q16832 [T654M].
T2 sequence (whole entry): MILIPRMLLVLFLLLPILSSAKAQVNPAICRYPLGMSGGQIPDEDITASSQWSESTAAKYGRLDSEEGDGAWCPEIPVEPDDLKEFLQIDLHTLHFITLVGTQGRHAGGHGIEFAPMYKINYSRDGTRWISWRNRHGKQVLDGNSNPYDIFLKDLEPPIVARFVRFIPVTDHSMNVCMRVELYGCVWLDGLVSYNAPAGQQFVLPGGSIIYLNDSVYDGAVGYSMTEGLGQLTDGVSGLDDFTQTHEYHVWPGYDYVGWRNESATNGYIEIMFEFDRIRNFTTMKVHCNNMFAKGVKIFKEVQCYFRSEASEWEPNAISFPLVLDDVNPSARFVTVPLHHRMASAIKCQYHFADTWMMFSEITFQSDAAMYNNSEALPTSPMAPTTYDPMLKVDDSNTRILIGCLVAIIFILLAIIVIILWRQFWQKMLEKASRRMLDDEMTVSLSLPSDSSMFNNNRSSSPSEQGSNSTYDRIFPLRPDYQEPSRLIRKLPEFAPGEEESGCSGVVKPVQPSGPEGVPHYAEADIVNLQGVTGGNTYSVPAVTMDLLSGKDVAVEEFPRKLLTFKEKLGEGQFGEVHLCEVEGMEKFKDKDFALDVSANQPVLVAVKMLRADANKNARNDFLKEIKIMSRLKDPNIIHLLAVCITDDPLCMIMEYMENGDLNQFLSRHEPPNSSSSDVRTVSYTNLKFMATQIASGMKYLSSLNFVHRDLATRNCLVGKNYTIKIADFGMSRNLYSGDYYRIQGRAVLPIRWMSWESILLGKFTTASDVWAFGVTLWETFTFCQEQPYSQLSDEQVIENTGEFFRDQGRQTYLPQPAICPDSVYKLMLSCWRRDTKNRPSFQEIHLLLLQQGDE
The test is described as follows: Selectivity interaction (ProQinase) EUB0000171b DDR2.

In test [8] the target is Calcium/calmodulin-dependent protein kinase type II subunit delta (Homo sapiens) (UniProt Q13557). The test is described as follows: Selectivity interaction (KinomeScan (DiscoverX)) EUB0000618a CAMK2D. The conditions noted are these: at 10 µM.

Chain of Serine/threonine-protein kinase SIK3 (Homo sapiens) (Q9Y2K2 whole entry, looked up): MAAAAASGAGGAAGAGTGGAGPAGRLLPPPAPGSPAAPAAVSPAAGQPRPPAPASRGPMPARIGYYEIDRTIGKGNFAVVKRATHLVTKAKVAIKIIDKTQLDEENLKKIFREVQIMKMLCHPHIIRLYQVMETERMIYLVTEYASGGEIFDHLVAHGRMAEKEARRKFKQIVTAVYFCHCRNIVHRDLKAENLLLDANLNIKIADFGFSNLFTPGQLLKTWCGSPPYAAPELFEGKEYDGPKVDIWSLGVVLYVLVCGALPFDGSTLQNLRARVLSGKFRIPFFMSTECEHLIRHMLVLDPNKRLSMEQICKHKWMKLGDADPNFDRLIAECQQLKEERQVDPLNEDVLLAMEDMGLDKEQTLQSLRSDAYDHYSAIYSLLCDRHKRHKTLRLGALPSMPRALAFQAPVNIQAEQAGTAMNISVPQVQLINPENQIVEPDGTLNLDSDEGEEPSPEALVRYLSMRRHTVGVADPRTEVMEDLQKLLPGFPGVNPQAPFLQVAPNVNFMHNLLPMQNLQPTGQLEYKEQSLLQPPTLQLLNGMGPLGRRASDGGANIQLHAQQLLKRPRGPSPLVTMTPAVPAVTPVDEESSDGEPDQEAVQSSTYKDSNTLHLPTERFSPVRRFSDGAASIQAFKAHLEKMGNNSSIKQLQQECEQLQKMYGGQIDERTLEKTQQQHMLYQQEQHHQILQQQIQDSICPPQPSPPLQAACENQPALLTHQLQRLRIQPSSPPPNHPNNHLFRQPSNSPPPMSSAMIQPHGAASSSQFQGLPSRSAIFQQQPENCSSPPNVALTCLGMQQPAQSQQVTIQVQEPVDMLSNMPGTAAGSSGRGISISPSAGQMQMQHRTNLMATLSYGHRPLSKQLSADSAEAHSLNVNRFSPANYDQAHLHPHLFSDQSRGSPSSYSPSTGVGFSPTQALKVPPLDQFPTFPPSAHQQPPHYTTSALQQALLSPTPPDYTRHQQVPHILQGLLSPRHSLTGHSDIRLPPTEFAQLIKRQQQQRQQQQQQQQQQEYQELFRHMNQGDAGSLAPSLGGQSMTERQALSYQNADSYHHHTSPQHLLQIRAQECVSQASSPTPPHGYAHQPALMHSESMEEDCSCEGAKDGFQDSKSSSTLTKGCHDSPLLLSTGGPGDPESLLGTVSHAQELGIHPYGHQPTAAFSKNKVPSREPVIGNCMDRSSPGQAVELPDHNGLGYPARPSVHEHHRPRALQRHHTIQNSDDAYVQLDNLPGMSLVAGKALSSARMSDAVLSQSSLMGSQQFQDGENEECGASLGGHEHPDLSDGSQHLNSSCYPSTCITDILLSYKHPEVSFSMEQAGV
Chain of Vascular endothelial growth factor receptor 1 (Homo sapiens) (P17948 whole entry, the tested form may be a part): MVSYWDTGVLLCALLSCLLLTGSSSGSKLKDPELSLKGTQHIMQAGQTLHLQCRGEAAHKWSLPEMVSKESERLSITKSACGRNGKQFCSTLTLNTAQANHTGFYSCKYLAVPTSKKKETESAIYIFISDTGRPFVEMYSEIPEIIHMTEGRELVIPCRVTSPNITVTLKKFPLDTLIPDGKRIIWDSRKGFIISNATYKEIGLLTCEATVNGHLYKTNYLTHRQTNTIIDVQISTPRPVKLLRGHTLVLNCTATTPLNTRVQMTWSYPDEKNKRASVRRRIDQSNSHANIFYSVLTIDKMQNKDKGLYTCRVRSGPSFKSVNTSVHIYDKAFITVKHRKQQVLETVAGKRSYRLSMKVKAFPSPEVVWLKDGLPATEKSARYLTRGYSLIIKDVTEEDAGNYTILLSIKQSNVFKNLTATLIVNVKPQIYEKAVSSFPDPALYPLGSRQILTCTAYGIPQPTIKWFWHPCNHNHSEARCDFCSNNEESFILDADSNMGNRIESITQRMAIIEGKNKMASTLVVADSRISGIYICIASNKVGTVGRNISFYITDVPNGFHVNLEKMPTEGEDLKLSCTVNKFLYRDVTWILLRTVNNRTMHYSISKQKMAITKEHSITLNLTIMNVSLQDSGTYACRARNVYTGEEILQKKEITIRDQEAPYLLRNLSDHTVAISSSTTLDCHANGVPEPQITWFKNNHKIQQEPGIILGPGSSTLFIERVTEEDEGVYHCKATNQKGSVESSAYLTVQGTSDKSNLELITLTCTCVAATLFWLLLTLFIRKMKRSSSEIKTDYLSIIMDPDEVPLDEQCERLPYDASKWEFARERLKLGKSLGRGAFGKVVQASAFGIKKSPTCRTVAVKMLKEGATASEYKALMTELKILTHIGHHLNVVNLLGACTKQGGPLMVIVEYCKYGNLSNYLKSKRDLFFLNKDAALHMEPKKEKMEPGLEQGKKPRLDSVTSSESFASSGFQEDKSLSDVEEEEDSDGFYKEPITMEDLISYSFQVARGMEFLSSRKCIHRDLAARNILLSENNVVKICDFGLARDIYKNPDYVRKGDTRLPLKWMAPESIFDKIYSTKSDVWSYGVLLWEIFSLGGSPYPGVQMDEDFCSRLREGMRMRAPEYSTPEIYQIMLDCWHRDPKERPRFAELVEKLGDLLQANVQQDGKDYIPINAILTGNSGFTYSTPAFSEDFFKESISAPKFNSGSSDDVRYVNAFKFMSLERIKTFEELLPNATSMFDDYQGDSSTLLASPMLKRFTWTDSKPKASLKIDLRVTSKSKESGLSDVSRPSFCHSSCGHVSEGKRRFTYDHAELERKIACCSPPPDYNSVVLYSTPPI
Chain of Tyrosine-protein kinase Lyn (P07948 2-512 limits assumed): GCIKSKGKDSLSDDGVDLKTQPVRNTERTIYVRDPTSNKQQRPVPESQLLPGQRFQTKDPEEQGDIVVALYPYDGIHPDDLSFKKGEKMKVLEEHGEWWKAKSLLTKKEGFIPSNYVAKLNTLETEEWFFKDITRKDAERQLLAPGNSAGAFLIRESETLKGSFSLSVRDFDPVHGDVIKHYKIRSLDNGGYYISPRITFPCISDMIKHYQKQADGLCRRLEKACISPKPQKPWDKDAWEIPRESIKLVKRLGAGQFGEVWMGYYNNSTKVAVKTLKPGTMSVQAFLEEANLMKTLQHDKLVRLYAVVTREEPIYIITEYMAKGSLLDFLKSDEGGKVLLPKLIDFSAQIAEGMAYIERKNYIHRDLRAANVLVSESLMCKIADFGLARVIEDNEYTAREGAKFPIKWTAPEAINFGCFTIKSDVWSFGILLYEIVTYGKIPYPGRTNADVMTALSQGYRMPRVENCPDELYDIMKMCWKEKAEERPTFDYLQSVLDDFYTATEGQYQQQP

`CN(C)C/C=C/C(=O)Nc1ccc(C(=O)N2CCCC(Nc3ncc(Cl)c(-c4c[nH]c5ccccc45)n3)C2)cc1` (stereo unspecified) yielded a % of control in test [1] of 87%.

For the compound `Cc1cc(C)cc([C@@H]2c3cc(C)ccc3NC(=O)CN2C(=O)c2ccc(Br)s2)c1`, the results for the % of activity in test [2] (at 1 µM) and in [2] (at 10 µM) were 102% and 103%, respectively.

Compound `O=C(NOC[C@H](O)CO)c1ccc(F)c(F)c1Nc1ccc(I)cc1F` returned a % of control in [3] of 52%.

Turning to `N#Cc1cccc(-c2c[nH]c3ncnc(N4CCOCC4)c23)c1`, the % of inhibition in test [4] is 29%.

In test [5], `CC[C@@H]1[C@H](F)C(=O)N[C@@H]1COc1nccc2cc(C(N)=O)c(OC)cc12` [ZIMLOVISERTIB] registered a % of inhibition of 5.3%.

`CCN(CC)CCCCNc1ncc2cc(-c3cc(OC)cc(OC)c3)c(NC(=O)NC(C)(C)C)nc2n1`: on Focal adhesion kinase 1, the % of control was 100%.

For the compound `Cc1cc(F)c(C(=O)Nc2cccc(-c3nncn3C(C)C)n2)cc1-n1cnc(C2CC2)c1`, the % of control in test [6] was found to be 100%.

Regarding `C=CC(=O)Nc1cccc(C(=O)Nc2ccc(Nc3cc(-c4[nH]c(SC)nc4C)ccn3)cc2)c1`, the % of control amounted to 89% in test [7] (at 1 µM) and 70% in test [7] (at 5 µM).

Regarding `O[C@H]1CC[C@H](Nc2ncc3nc(Nc4c(F)cc(F)cc4F)n([C@H]4CCOC4)c3n2)CC1`, the % of control in test [8] stood at 76%.
